Measured values taken from patent US6458840B2, “Use of valproic acid analog for the treatment and prevention of migraine and affective illness” (American Biogenetic Sciences, Inc., priority 1998, dated 2002).
≈ marks a conversion by molar mass, not a printed value. Where “and” joins values, the source holds several entries; their conditions need not be identical. Identical values can stand only once. Each block holds one molecule with its values, some of them ahead of it.

Key:
[1] = Open field observation, behavioral rating of adverse effects; type: in vivo, rat; settings: for antaxia (1-6) / hypolocomotion (1-3) / muscle relaxation (1-3): 13′ after application, mean (X)
Experimental: Tests included open field observations, rotarod test and body temperature. Tests were always performed in the same manner in control and drug experiments at two different times, just before application of drug or vehicle and 13 minutes after application.
In addition to these quantitative estimations of neurological deficit, behavioral alterations observed after administration of 2-propyl-4-hexynoic acid and valproate noted in the cage and by placing the animals in an open field of 90-100 cm diameter. Muscle tone was estimated by palpation of the abdomen. The extent of deficits in behavior after administration of the compounds was determined by a rating system (Loscher et al. 1987). In short, animals were taken out of the cage, placed in an open field, observed for about 1 minute and rated separately for ataxia, abducted hindlimbs, reduced righting, flat body posture, circling, Straub tail, piloerection, hypolocomotion and hyperlocomotion (abdominal muscle tone was evaluated by palpation at the end of the period of observation). All other parameters except ataxia were scored from 0 to 3: 0-absent; 1-equivocal; 2-present; 3- intense. For ataxia (06): 1 -slight ataxia in hind-legs (tottering of the hind quarters); 2-more pronounced ataxia with dragging of hind legs; 3-further increase of ataxia and more pronounced dragging of hind legs; 4-marked ataxia, animals lose balance during forward locomotion; 5- very marked ataxia with frequent loss of balance during forward locomotion; 6-permanent loss of righting reflexes, but animal still attempts to move forward. Rectal body temperature was measured by an electronic thermometer. Body weight of the animals was recorded once daily before drug injection. Significance of differences in behavior between pre-drug and post-drug data determined in the same group of animals was calculated by the Wilcoxon signed rank test for paired replicates and for body temperature by Student's paired t-test (SigmaStat for Windows, version 1.0). Differences in body temperature were always compared only within the experimental day with the pre-drug time as control to one post-drug time.

[2] = system: amygdala-kindled seizures; experiment: Amygdala-kindling in fully kindled rats (anti-seizure effects); type: in vivo, rat; settings: for afterdisch.dur.1 (ADD1) / afterdisch.dur.2 (ADD2) / afterdisch.thresh. (ADT) / seizure duration1 (SD1) / seizure duration2 (SD2) / seizure severity (SS): 15 min pretreatment, mean (X); for seizure severity (SS): Racine score; for increase of afterdischarge threshold: versus pre-drug control
Experimental: For implantation of stimulation and recording electrodes, rats were anesthetized with chloral hydrate (360 mg/kg i.p.) and received stereotaxic implantation (according to the surgery methods described in the atlas of Paxinos and Watson [1986]) of one bipolar electrode in the right basolateral amygdala. Coordinates for electrode implantation were AP-2.2 mm, L-4.8 mm, V-8.5 mm. All coordinates were measured from bregma. Skull screws served as the indifferent reference electrode. The electrode assembly was attached to the skull by dental acrylic cement. After a postoperative period of 2 weeks, constant current stimulations (500 μA, 1 ms, monophasic square-wave pulses, 50/s for 1 s) were delivered to the amygdala at intervals of 1/day until ten stage 5 seizures were elicited. The electrical susceptibility of the stimulated region (threshold for induction of afterdischarges) was recorded on the first day of the experiment (initial afterdischarge threshold) as well as after kindling acquisition (with an interval of at least 4 days after the tenth stage 5 seizure) using an ascending staircase procedure. The initial current intensity was 1 OμA, and the current intensity was increased in steps of about 20% of the previous current at intervals of 1 min until an afterdischarge of at least 3 s duration was elicited. […] In addition to afterdischarge threshold, the following parameters of kindled seizures were measured in fully-kindled rats after stimulation with the afterdischarge threshold current: seizure severity was classified according to Racine (1972): 1 -immobility, eye closure, twitching of vibrissae, sniffing, facial clonus; 2-head nodding associated with more severe facial clonus; 3-clonus of one forelimb; 4-rearing, often accompanied by bilateral forelimb clonus; 5-rearing with loss of balance and falling accompanied by generalized clonic seizures. Seizure duration 1 (SD 1) was the duration of limbic (stage 1-2) and/or motor seizures (stage 3-5). Seizure duration 2 (SD 2) included the time of limbic and/or motor seizures plus the adjacent time of immobility. Afterdischarge duration 1 (ADD 1) was the time of spikes in the EEG recorded from the site of stimulation with a frequency of at least 1 /s. Afterdischarge duration 2 (ADD 2) was the total time of spikes occurring in the EEG including those, which followed the ADD 1 with lower frequency and amplitude.
The anti-seizure effects of 2-propyl-4-hexynoic acid and valproate in fully kindled rats were determined in a group of 8-9 rats (no. 784, 785, 787, 788, 789, 790 [had to be taken out of the trial, because of loss of electrodes], 791, 792, 793) with reproducible stage 5 seizures.
Drugs were injected 15 min prior to stimulation intraperitoneally. Control experiments were always performed 2-3 days before each drug experiment. For control determinations, rats received i.p. injections of vehicle (saline) with the pretreatment time of the respective drug experiment. For all drug experiments, at least 4 days were interposed between 2 drug injections in order to avoid alterations in drug potency due to cumulation or tolerance.
The significance of differences between pre-drug control recordings and recordings after drug injection was calculated by the Wilcoxon signed rank test for paired replicates (SigmaStat for Windows, version 1.0).

[3] = Plasma drug levels after treatment and kindling stimulation; type: in vivo, rat; settings: same dose of both drugs, immediately after treatment and kindling stimulation; for Plasma Drug Levels, Average: average of 8 rats; for Plasma Drug Levels, individual rats: each line one rat (784-793)
Excerpt: Since there were differences in potencies between both compounds, plasma was obtained from rats immediately after treatment and kindling stimulation during one dose experiment.

[4] = Drug solubility test; type: physicochemical; settings: read-out: concentration in drug solubility test
[5] = 200 mg/kg i.p., listed as valproate
[6] = 100 mg/kg i.p., listed as valproate

SMILES: CC#CCC(CCC)C(=O)O (stereo not drawn) [2-propyl-4-hexynoic acid, 2-n-propyl-4-hexynoic acid]
- antaxia (1-6) ([1]; 200 mg/kg i.p.): 1.5 score
- hypolocomotion (1-3) ([1]; 200 mg/kg i.p.): 1.4 score
- muscle relaxation (1-3) ([1]; 200 mg/kg i.p.): 1.4 score
- BEHAVIOR (score) antaxia (1-6) ([1]; 200 mg/kg, 13′, mean of 8 rats): 1.50 score
- BEHAVIOR (score) hypolocomotion (1-3) ([1]; 200 mg/kg, 13′, mean of 8 rats): 1.38 score
- BEHAVIOR (score) muscle relaxation (1-3) ([1]; 200 mg/kg, 13′, mean of 8 rats): 1.38 score
- BEHAVIOR (score) red. righting (1-3) ([1]; 200 mg/kg, 13′, mean of 8 rats): 0.75 score
- adverse effects, in words ([1]; doses 50, 75, 100, 200 mg/kg i.p.): only observed at the highest dose of 200 mg/kg and were milder than with valproate
- effects against amygdala-kindled seizures, in words ([2]; 50 mg/kg i.p.): no significant effects
- afterdisch.dur.1 (ADD1) ([2]; 50 mg/kg i.p.): 93.11 s
- afterdisch.dur.2 (ADD2) ([2]; 50 mg/kg i.p.): 93.11 s
- afterdisch.thresh. (ADT) ([2]; 50 mg/kg i.p.): 37.33 μA
- seizure duration1 (SD1) ([2]; 50 mg/kg i.p.): 78.44 s
- seizure duration2 (SD2) ([2]; 50 mg/kg i.p.): 234.33 s
- seizure severity (SS) ([2]; 50 mg/kg i.p.): 4.89 score
- afterdisch.dur.1 (ADD1) ([2]; 75 mg/kg i.p.): 16.25 s
- afterdisch.dur.2 (ADD2) ([2]; 75 mg/kg i.p.): 16 s and 16.25 s
- afterdisch.thresh. (ADT) ([2]; 75 mg/kg i.p.): 88.50 μA
- seizure duration1 (SD1) ([2]; 75 mg/kg i.p.): 16 s and 16.25 s
- seizure duration2 (SD2) ([2]; 75 mg/kg i.p.): 16.25 s
- seizure severity (SS) ([2]; 75 mg/kg i.p.): 2.3 score and 2.25 score
- increase of afterdischarge threshold ([2]; 75 mg/kg i.p.): 109%
- seizure duration1 (SD1) ([2]; 100 mg/kg i.p.): 47 s
- seizure severity (SS) ([2]; 100 mg/kg i.p.): 3.6 score
- increase of afterdischarge threshold ([2]; 100 mg/kg i.p.): 160%
- afterdisch.dur.2 (ADD2) ([2]; 200 mg/kg i.p.): 24 s
- seizure duration1 (SD1) ([2]; 200 mg/kg i.p.): 19 s
- seizure severity (SS) ([2]; 200 mg/kg i.p.): 1.8 score
- increase of afterdischarge threshold ([2]; 200 mg/kg i.p.): 209%
- afterdisch.thresh. (ADT; μA) ([2]; 200 mg/kg, mean (X) of 8 kindled rats, control mean 57.88): 178.75 μA
- seizure severity (SS; score) ([2]; 200 mg/kg, mean of 8 rats, control mean 4.63): 1.75 score
- seizure duration1 (SD1; sec) ([2]; 200 mg/kg, mean of 8 rats, control mean 61.63): 19.25 s
- afterdisch.dur.1 (ADD1;sec) ([2]; 200 mg/kg, mean of 8 rats, control mean 77.25): 23.50 s
- afterdisch.dur.2 (ADD2; sec) ([2]; 200 mg/kg, mean of 8 rats, control mean 88.13): 23.50 s
- seizure duration2 (SD2; sec) ([2]; 200 mg/kg, mean of 8 rats, control mean 197.88): 36.38 s
- Plasma Drug Levels, Average [3]: 198.37 µg/mL
- Plasma Drug Levels, individual rats [3]: 209.31 µg/mL and 201.34 µg/mL and 218.87 µg/mL and 154.89 µg/mL and 220.70 µg/mL and 180.10 µg/mL and 170.68 µg/mL and 225.95 µg/mL
- solubility [4]: 18.5 mg/mL (≈ 120 mM)

- Plasma Drug Levels, Average [3]: 182.26 µg/mL
- solubility [4]: 20 mg/mL (≈ 139 mM)
SMILES: CCCC(CCC)C(=O)O [Valproate, valproic acid]
- alterations in behavior, in words ([1]; 100 mg/kg i.p.): No alterations
- further adverse effects, in words ([1]; 200 mg/kg i.p.): wet dog shakes
- antaxia (1-6) ([1]; 200 mg/kg i.p.): 2.75 score
- hypolocomotion (1-3) ([1]; 200 mg/kg i.p.): 1.00 score
- muscle relaxation (1-3) ([1]; 200 mg/kg i.p.): 2.00 score
- antaxia (1-6) [1, 5]: 2.8 score
- hypolocomotion (1-3) [1, 5]: 1.0 score
- muscle relaxation (1-3) [1, 5]: 2.0 score
- afterdisch.dur.1 (ADD1) ([2]; 50 mg/kg i.p.): 76.67 s
- afterdisch.dur.2 (ADD2) ([2]; 50 mg/kg i.p.): 76.67 s
- afterdisch.thresh. (ADT) ([2]; 50 mg/kg i.p.): 60.44 μA
- seizure duration1 (SD1) ([2]; 50 mg/kg i.p.): 72.22 s
- seizure duration2 (SD2) ([2]; 50 mg/kg i.p.): 231.67 s
- seizure severity (SS) ([2]; 50 mg/kg i.p.): 4.33 score
- increase of afterdischarge threshold ([2]; 50 mg/kg i.p.): 109%
- afterdisch.dur.1 (ADD1) ([2]; 75 mg/kg i.p.): 67.25 s
- afterdisch.dur.2 (ADD2) ([2]; 75 mg/kg i.p.): 67.25 s
- afterdisch.thresh. (ADT) ([2]; 75 mg/kg i.p.): 73.13 μA
- seizure duration1 (SD1) ([2]; 75 mg/kg i.p.): 54.00 s
- seizure duration2 (SD2) ([2]; 75 mg/kg i.p.): 250.75 s
- seizure severity (SS) ([2]; 75 mg/kg i.p.): 4.13 score
- increase of afterdischarge threshold ([2]; 75 mg/kg i.p.): 77%
- afterdisch.dur.1 (ADD1) ([2]; 100 mg/kg i.p.): 20.00 s
- afterdisch.dur.2 (ADD2) ([2]; 100 mg/kg i.p.): 20.00 s
- afterdisch.thresh. (ADT) ([2]; 100 mg/kg i.p.): 151.67 μA
- seizure duration1 (SD1) ([2]; 100 mg/kg i.p.): 18.22 s
- seizure duration2 (SD2) ([2]; 100 mg/kg i.p.): 43.44 s
- seizure severity (SS) ([2]; 100 mg/kg i.p.): 3.00 score
- seizure severity (SS) [2, 6]: 3.0 score
- afterdisch.dur.2 (ADD2) [2, 6]: 20 s
- seizure duration1 (SD1) [2, 6]: 18 s
- increase of afterdischarge threshold ([2]; 100 mg/kg i.p.): 319%
- afterdisch.dur.1 (ADD1) ([2]; 200 mg/kg i.p.): 8.75 s
- afterdisch.dur.2 (ADD2) ([2]; 200 mg/kg i.p.): 8.75 s
- afterdisch.thresh. (ADT) ([2]; 200 mg/kg i.p.): 496.25 μA
- seizure duration1 (SD1) ([2]; 200 mg/kg i.p.): 8.75 s
- seizure duration2 (SD2) ([2]; 200 mg/kg i.p.): 8.75 s
- seizure severity (SS) ([2]; 200 mg/kg i.p.): 1.63 score
- seizure severity (SS) [2, 5]: 1.6 score
- afterdisch.dur.2 (ADD2) [2, 5]: 9 s
- seizure duration1 (SD1) [2, 5]: 9 s
- increase of afterdischarge threshold ([2]; 200 mg/kg i.p.): 970%
- effects against amygdala-kindled seizures, in words ([2]; all doses tested: 50, 75, 100, 200 mg/kg i.p.): significant effects against amygdala-kindled seizures
- Plasma Drug Levels, individual rats [3]: 197.82 µg/mL and 189.87 µg/mL and 168.89 µg/mL and 173.37 µg/mL and 205.44 µg/mL and 174.06 µg/mL and 157.83 µg/mL and 190.82 µg/mL
